In publication PMC10714390, “Quinoline Compounds Targeting the c-Ring of ATP Synthase Inhibit Drug-Resistant Pseudomonas aeruginosa” (ACS Infectious Diseases, 2023):
“And” between values parts separate entries of the source, which are not always exact repeats. Equal entries are not always repeated. Where two headings read alike, the source gives them in different places.

Columns and labels:
[1] = test system: P. aeruginosa (ATCC 9027); experiment: Antimicrobial susceptibility (broth microdilution), PA 9027; assay type: cell-based, Pseudomonas aeruginosa; conditions: Pseudomonas aeruginosa, ATCC9027; n = 3; >85% reduction in growth at OD 590 nm; read-out: antibacterial activity (MIC) PA 9027
Procedure: (§1) The following are general steps, unless otherwise noted. All steps were completed using aseptic techniques. All media and glassware were sterilized via an autoclave at 121 °C for 60 min. All agitation occurred at 160 rpm in a temperature-controlled console shaker (Excella E25) at 37 °C. Full-strength tryptic soy broth (TSB) was made by dissolving 30 g of BD Bacto TSB powder in 1 L of deionized water. Purchased and acquired bacterial strains used were E. coli (ATCC 25922), P. aeruginosa (ATCC 9027), drug-resistant P. aeruginosa from ATCC Panel MP-23 (BAA 2108, BAA 2109, BAA 2110), and P. aeruginosa efflux knockout GKCW120 (PΔ6)[6] provided by Zgurskaya and co-workers at the University of Oklahoma.
(§2) Susceptibility testing was performed in biological triplicate using the broth microdilution method as outlined by the Clinical and Laboratory Standards Institute. […] Briefly, to each well, 1 μL of compound in DMSO, 89 μL of TSB, and 10 μL of bacterial inoculum, grown from a single colony in 10 mL of TSB for 4–6 h, were added. After incubation for 12–15 h at 37 °C, absorbance at 590 nm was read on a Biotek Synergy HTX Multimode plate reader. Data were processed by background subtracting the media absorbance and then normalizing the data to full bacterial growth with the vehicle only. MIC is defined as the lowest concentration of antibiotic or antibiotic/adjuvant combination that achieves ≥85% growth inhibition, which corresponds to no visible growth.
(§3) Initial antibacterial activity screen of compounds 4, 5, and S1-S6
(§4) Compounds 4, 5, and S1-S6 were screened for initial antibiotic activity against a susceptible laboratory strain of EC (designated EC 25922), and non-virulent, biofilm forming strain of PA (designated PA 9027), and PD6 (efflux knockout strain6) at 128 µg/mL in DMSO. Sterilization and Antimicrobial Susceptibility Assay procedures utilized were the same as described in the methods.
(§5) Table S1. Antibacterial activity screening results for compounds 4, 5, and S1-S6 at 128 µg/mL
(§6) Table S1. Antibacterial activity screening results for compounds 4, 5, and S1-S6 at 128 µg/mL.

[2] = test system: P. aeruginosa efflux knockout GKCW120 (PΔ6); experiment: Antimicrobial susceptibility (broth microdilution), PΔ6 efflux knockout; assay type: cell-based, Pseudomonas aeruginosa; conditions: n = 3; >85% reduction in growth at OD 590 nm
Procedure: as §1, §2, §3, §4, §5, §6

[3] = test system: drug-resistant P. aeruginosa BAA 2109; experiment: Antimicrobial susceptibility (broth microdilution), BAA 2109; assay type: cell-based, Pseudomonas aeruginosa; conditions: Pseudomonas aeruginosa, BAA2109, read-out: antibacterial activity (MIC) BAA 2109
Procedure: as §1, §2

[4] = test system: drug-resistant P. aeruginosa BAA 2110; experiment: Antimicrobial susceptibility (broth microdilution), BAA 2110; assay type: cell-based, Pseudomonas aeruginosa; conditions: Pseudomonas aeruginosa, BAA2110, read-out: antibacterial activity (MIC) BAA 2110
Procedure: as §1, §2

[5] = test system: drug-resistant P. aeruginosa BAA 2108; experiment: Antimicrobial susceptibility (broth microdilution), BAA 2108; assay type: cell-based, Pseudomonas aeruginosa; conditions: Pseudomonas aeruginosa, BAA2108, read-out: antibacterial activity (MIC) BAA 2108
Procedure: as §1, §2

[6] = test system: PA electron transport chain; design: method as in PMID 35990476; conditions: PA vesicles; cited from earlier work
[7] = test system: P. aeruginosa (ATCC 9027); design: method as in PMID 35990476; conditions: cited from earlier work
[8] = test system: EC electron transport chain; experiment: Electron transport activity (NADH-driven H+ pumping, ACMA quenching), E. coli DK8/pASH20 vesicles; assay type: biochemical, Escherichia coli
Procedure: Determination of electron transport activity. In an opaque black 96-well plate, inverted membrane
vesicles from PA or E. coli DK8 pASH20 were added to HMK buffer containing 0.3 µg/mL 9-amino-6-chloro-
2-methoxyacridine (ACMA) and 0-64 µg/mL test compound in DMSO. After measurement of baseline
ACMA fluorescence for 60 s, redox-driven H+ pumping was initiated by addition of NADH to 0.8 mM, and
fluorescence quenching was monitored for 120 s before addition of nigericin to 0.5 µg/mL. Relative
activity is reported as the minimum fluorescence value normalized to the maximum fluorescence value
following addition of nigericin. […]

[9] = target: T1, PA ATP synthase cIle65Ala mutant (Pseudomonas aeruginosa, UniProt Q9HT15, I65A); experiment: NADH-driven ATP synthesis inhibition, DK8/pASH20 cI65A membrane vesicles; assay type: biochemical
T1 construct: expressed in transfected cells; host or cells: E. coli K-12 DK8 transformed with pASH20 carrying mutated atpE
Procedure: (§7) P. aeruginosa (ATCC 9027) was streaked onto a 10% TSB agar plate and incubated at room temperature for 72 h. A single colony was resuspended in 100 μL of H2O, and 5 μL was used as the DNA template for PCR with Q5 polymerase (NEB) and […] each of forward and reverse primers. Primers were complementary to regions flanking the atp operon and included sequences for HindIII and NdeI restriction sites (see the SI for primer sequences). The resulting 6.9 kbp DNA fragment was digested with HindIII and NdeI and ligated into digested vector pBR322 (New England Biolabs). The resultant pASH20(-i) plasmid contains a partial atpI gene. To complete the atpI gene, the HindII-XhoI fragment of pASH20(-i) was replaced with a synthetic fragment with a complete atpI (Twist Bioscience) to yield pASH20. The sequence of the entire operon was verified by Sanger DNA sequencing through the ligation sites. Subunit c mutations were introduced by exchanging the XhoI-BamHI fragment containing atpE with a synthetic fragment containing mutated atpE (Twist Bioscience).
(§8) Vesicles were prepared from P. aeruginosa and transformed E. coli cells as previously described.[22] Briefly, cells were grown in LB liquid medium at 37 °C with shaking and harvested by centrifugation after 7 h of growth. Cultures of transformant E. coli included 100 μg/mL ampicillin. Cells were disrupted in TMG buffer (50 mM Tris-HCl, MgCl2, 10% (v/v) glycerol, pH 7.5) using an Avestin B15 homogenizer at 19,000 psi. After unbroken cells and debris were cleared by centrifugation at 9000g, inverted vesicles were collected by centrifugation at 193,000g, resuspended in TMG buffer, and stored at −80 °C. Protein concentrations were determined using a modified Lowry assay.[25]
(§9) Continuous ATP synthesis activity of inverted membrane vesicles was measured using a luciferin/luciferase luminescence assay as previously described.[22] Inhibition of ATP synthesis activity by test compounds was determined using an end point assay essentially as previously described.[18],[26] In this assay, the synthesis reaction was initiated by 2.5 mM NADH, proceeded for 10 min, and was stopped with 1% trichloroacetic acid, 2 mM CCCP, and 10 mM EDTA. Samples from each reaction were diluted 500-fold prior to the addition of luciferase since quinoline compounds are known to inhibit luciferase.[27] This dilution was sufficient to minimize inhibition of luciferase (Figure S4). Each replicate set included a positive control containing DMSO with no compound and a negative control containing carbonyl cyanide m-chlorophenyl hydrazone. Luminescence values were corrected for the background by subtracting the negative control and then normalized to the positive control within the same replicate. Dose–response curves were fit using eq 1, where activity is the relative ATP synthesis activity, [I] is the concentration of inhibitor in μg/mL, and n is the Hill coefficient. [drawing 1] 1

[10] = target: T2, PA ATP synthase (Pseudomonas aeruginosa, UniProt Q9HT15); design: method as in PMID 35990476; conditions: PA membrane vesicles; cited from earlier work
T2 construct: Inverted membrane vesicles were prepared from PA 9027; endogenous in cells; host or cells: Pseudomonas aeruginosa ATCC 9027, inverted membrane vesicles

[11] = target: T3, PA ATP synthase expressed in E. coli DK8/pASH20 (Pseudomonas aeruginosa, UniProt Q9HT15); experiment: NADH-driven ATP synthesis inhibition, DK8/pASH20 membrane vesicles; assay type: biochemical
T3 construct: expressed in transfected cells; host or cells: E. coli K-12 DK8 (lacks its own ATP synthase) transformed with pASH20 (pBR322 derivative)
Procedure: as §7, §8, §9

[12] = target: T2, PA ATP synthase; experiment: NADH-driven ATP synthesis inhibition, PA inverted membrane vesicles; assay type: biochemical; conditions: inhibition of ATP synthesis activity
Procedure: as §8, §9

[13] = target: T4, PA ATP synthase cIle65Phe mutant (Pseudomonas aeruginosa, UniProt Q9HT15, I65F); experiment: NADH-driven ATP synthesis inhibition, DK8/pASH20 cI65F membrane vesicles; assay type: biochemical
T4 construct: expressed in transfected cells; host or cells: E. coli K-12 DK8 transformed with pASH20 carrying mutated atpE
Procedure: as §7, §8, §9

[14] = test system: E. coli (ATCC 25922); design: method as in PMID 35990476; conditions: cited from earlier work
[15] = test system: P. aeruginosa efflux knockout GKCW120 (PΔ6); design: method as in PMID 35990476; conditions: cited from earlier work
[16] = inhibition of ATP synthesis activity

Structure (SMILES) | MIC [1] [µg/mL] | antibacterial activity (MIC) PΔ6 [2] [µg/mL] | MIC [3] [µg/mL] | MIC [4] [µg/mL] | MIC [5] [µg/mL] | Inhibition of the PA electron transport chain IC50 [6] | antibacterial activity (MIC) PA 9027 [7] [µg/mL] | inhibition of EC ETC-driven H+ pumping, in words ([8]; 0-64 µg/mL, Figure S2) | Inhibition of the EC electron transport chain IC50 ([8]; EC (DK8/pASH20) vesicles) [µg/mL] | IC50 ([9]; ATP synthesis IC50, DK8/pASH20 cI65A vesicles, cI65A mutant, NADH-driven, luminescence assay) [µM] | Hill coefficient of dose response fit, DK8/pASH20 cI65A vesicles [9, 16] | PA ATP synthesis IC50 [10] [µg/mL] | IC50 ([11]; ATP synthesis IC50, DK8/pASH20 vesicles, wild-type PA ATP synthase in E. coli DK8, NADH-driven, end point luminescence assay) | Hill coefficient of dose response fit, DK8/pASH20 vesicles [11, 16] | Hill coefficient of dose response fit, PA vesicles [12] | IC50 [13] [µM] | Hill coefficient of dose response fit, DK8/pASH20 cI65F vesicles [13, 16] | antibacterial activity (MIC) EC 25922 [14] [µg/mL] | antibacterial activity (MIC) PΔ6 [15] [µg/mL]
CNC(C)C1CCC(N)C(OC2C(N)CC(N)C(OC3OCC(C)(O)C(NC)C3O)C2O)O1 (stereo not shown) [gentamicin, reference compound] | 2 to 4 | >4 | 2 | 4 to 8 | 16 | – | – | – | – | – | – | – | – | – | – | – | – | – | –
COC(=O)[C@H](Cc1ccc(O)cc1)NCc1cc2ccccc2nc1SC [Compound 1, reference compound] | – | – | – | – | – | >64[18] μg/mL | >256 | did not inhibit the electron transport chain strongly | >64 | 18 | 1.1 | 10.0 | 27.7 µM and 28.8 µM | 1.3 | 1.4 | 22 | 1.4 | >128 | >256
